# Earlier results in patent US20060110359A1, “Cellular delivery of natriuretic peptides” (priority 2002, published 2006).
# Columns and labels:
# brain edema [1] = settings: for effect on brain edema: experimental brain hemorrhage in rats
# brain edema [2] = settings: into rat lateral ventricle or intravenously
SMILES,effect on brain edema (brain edema [1]),"brain water and sodium (brain edema [1]; given after a 4-hour delay, 24 hours after hemorrhage, rats)",brain water and sodium accumulation (brain edema [2])
Nc1nc2c(nc(Br)n2[C@@H]2O[C@@H]3COP(=O)(O)O[C@H]3[C@H]2O)c(=O)[nH]1 [8-bromo-cGMP],Neither mannitol nor 8-bromo-cGMP affected brain edema,–,–
"CC[C@H](C)[C@@H]1NC(=O)[C@H](CCCNC(=N)N)NC(=O)[C@H](CC(=O)O)NC(=O)[C@H](CCSC)NC(=O)[C@H](CCCNC(=N)N)NC(=O)CNC(=O)CNC(=O)[C@H](Cc2ccccc2)NC(=O)[C@@H](NC(=O)[C@H](CO)NC(=O)[C@H](CO)NC(=O)[C@H](CCCNC(=N)N)NC(=O)[C@H](CCCNC(=N)N)NC(=O)[C@H](CC(C)C)NC(=O)[C@@H](N)CO)CSSC[C@@H](C(=O)N[C@@H](CC(N)=O)C(=O)N[C@@H](CO)C(=O)N[C@@H](Cc2ccccc2)C(=O)N[C@@H](CCCNC(=N)N)C(=O)N[C@@H](Cc2ccc(O)cc2)C(=O)O)NC(=O)CNC(=O)[C@H](CC(C)C)NC(=O)CNC(=O)[C@H](CO)NC(=O)[C@H](CCC(N)=O)NC(=O)[C@H](C)NC(=O)CNC1=O [ANP, atrial natriuretic peptide]",–,significantly reduced,inhibit brain water and sodium accumulation
OC[C@@H](O)[C@@H](O)[C@H](O)[C@H](O)CO [mannitol],Neither mannitol nor 8-bromo-cGMP affected brain edema,–,–
